Test results: PMC12480552 (Scientific Reports, 2025)
Where two headings read alike, the source gives them in different places. Marks after values point to notes of the source that are not given here.

Experiments:
in vitro [1] = conditions: rhesus monkey, pH 7.4
Excerpt: (§1) The luciferase-transfected human breast cancer cell line (MDA231-BrM2-831) was purchased from Memorial Sloan Kettering Cancer Center (New York, NY). […] Deuterated olaparib (olaparib-d8) was purchased from Alsachim (Illkirch Graffenstaden, France). Cynomolgus macaque brain tissue (lot #CYN252598), rhesus macaque brain tissue (lot #RHS24901), rhesus macaque plasma (lot #RHS24900), CD1 mouse brain tissue (lot #MSE343926), and CD1 mouse plasma (lot #MSE343926) used in the protein-binding assays were obtained from BioIVT (Westbury, NY).
(§2) Brain (diluted 1:4 [5×] in PBS) or plasma (undiluted) were spiked with each test compound and applied to each matrix. Aliquots of each mixture were added to the donor wells of a rapid equilibrium dialysis plate in triplicate, and blank PBS was added to each receiver well, at volumes recommended by the manufacturer. Plates were incubated with shaking at 200 rpm for 4 h at 37 °C. At the end of incubation, samples were collected from each donor and receiver well. Samples were matrix-matched with the addition of an equivalent volume of blank matrix to each receiver sample and blank PBS to each donor sample. Additional samples were collected from each incubation mixture at the beginning (T = 0 min) and end (T = 240 min) of incubation for determination of stability, and matrix-matched with PBS as described above. The resultant samples were extracted by protein precipitation with acetonitrile containing an analytical internal standard, centrifuged, and analyzed by LC-MS/MS.

in vitro [2] = conditions: pH 7.4
Excerpt: as §1, §2

in vivo [3] = conditions: male, rhesus monkey; for Kp / Kp uu: brain
Method: Animals were randomized using the GSK Randomization App 2.0, which is an internal software tool that uses the ‘sample’ function in R to randomly shuffle animal IDs, then assigns them to treatment groups to ensure unbiased allocation.
Before each dose, animals were lightly sedated with an intramuscular injection of ketamine (5–10 mg/kg), and a blood sample was drawn. […] NHPs were euthanized by administering an overdose of injected sodium pentobarbital IV (150–200 mg/kg) and confirmed by thoracotomy and exsanguination. Terminal plasma, cerebrospinal fluid, and brain tissue were collected at necropsy. […] The brain was cut into six roughly 1-cm thick coronal segments before snap-freezing by floating on liquid nitrogen. The right hemispheres of the four interior coronal brain segments were cryosectioned and analyzed by matrix-assisted laser desorption/ionization mass spectrometry imaging (MALDI MSI) to quantitatively assess the tissue distribution of the dosed compounds[40]–[43]. After MALDI MSI analysis, tissue sections were stained with hematoxylin and eosin (H&E) for correlation of ion images with underlying tissue histology.
Brain tissue was weighed in polypropylene tubes, then phosphate-buffered saline (PBS) was added to the tissue sample before homogenization (1:4 wt: vol).
The LC-MS/MS system includes an API-6500 triple quadrupole mass spectrometer (Sciex, Framingham, MA) and an ExionLC system (ExionLC Controller, ExionLC AD Column Oven, ExionLC AD Pump, and ExionLC AD Multiplate Sampler; all from Sciex). Data were acquired and processed using Analyst® 1.7.2 software (Sciex). An Acquity UHPLC BEH C18 analytical column (1.7-µm, 2.1 × 50 mm; Waters, Milford, MA) was applied in sample analysis.
(§3) First, the brain tissue partition coefficient Kp, brain was calculated using Eq. (1).
(§4) Where Css, brain is the mean steady-state total drug concentration in brain tissue, and Css, plasma is the mean steady-state total drug concentration in plasma (both measured by LC-MS/MS). […] Finally, Kp, uu, brain was calculated using Eq. (2).2 [drawing 2]

[4] = LC-MS/MS bioanalysis of plasma and brain homogenate, mouse model of brain metastasis (MDA231-BrM2-831); type: in vivo, NCr nude mice; conditions: for Kp at 2 h / Kp uu at 2 h / concentration at 2 h: female, NCr nude (CrTac:NCr-Foxn1nu), mouse, oral; for concentration at 2 h: oral once daily 5 days, niraparib 35 mg/kg or olaparib 50 mg/kg, 2 h after final dose
Excerpt: A luciferase-transfected human breast adenocarcinoma cell line (MDA 231-BRM2-831) was used to generate a metastatic brain tumor model in female athymic nude mice. […] NCr nude mice (strain: CrTac: NCr-Foxn1^nu; female; 5–7 weeks old; Taconic Biosciences (Germantown, NY)) were used for these studies. A power analysis was completed by a statistician to determine the appropriate sample sizes for each group to measure a statistically significant. […] Control mice (n = 10) underwent a sham IC procedure (needle insertion into the ventricle without cell injection. All mice were monitored for tumor development by bioluminescence imaging (BLI) approximately once weekly for ~ 45 days, beginning 1 h after cell injection. In vivo BLI was performed at ~ 10 min post-luciferin injection (corresponding to the peak bioluminescent signal) using an IVIS Spectrum-CT system (PerkinElmer, Waltham, MA). Imaging parameters were set to automatic exposure in the Living Image software, while the binning (8) and aperture (open f-stop) remained at the default settings for all BLI acquisitions. The imaging frequency was increased to twice weekly for mice that developed brain metastases (BMs) as indicated by increased bioluminescence in the cranial region. […] The exact tumor size was not measured as an endpoint of this study. […] Two hours after the final dose, mice were euthanized by CO2 asphyxiation. At necropsy, a terminal blood sample was collected via cardia puncture, and the brains were harvested and snap-frozen by floating on liquid nitrogen. […] From each plane, serial tissue sections were collected for MALDI MSI and for H&E staining, and immunohistochemistry (IHC) staining. Tissue trimmings from between each plane were collected, homogenized, and submitted for bioanalysis in addition to the terminal plasma samples.

in vivo [5] = test: in vivo
Method: Female C57BL/6 mice were inoculated intracranially on the right side of the brain in the right frontal lobe with mouse glioblastoma (GL261) tumor cells (≈ 2 × 10^5) in 3 µL of phosphate-buffered saline for the tumor development. Mice were observed daily for clinical signs, and any mouse meeting predefined criteria for moribund status was euthanized. Criteria for moribund sacrifice included: ≥ 20% body weight loss or severe neurological symptoms (e.g., prostration, paralysis, seizures, hemorrhage).
Mice were euthanized by CO2 asphyxiation.
Brain tissue was weighed in polypropylene tubes, then PBS was added to the tissue sample before homogenization (1:4 wt: vol).
The LC-MS/MS system included an API-6500 triple quadrupole mass spectrometer (Sciex). Data were acquired and processed using Analyst® 1.7.2 software (Sciex). An Acquity UHPLC BEH C18 analytical column (1.7-µm, 2.1 × 50 mm; Waters) was applied in sample analysis.
For olaparib, the LLQ was 5.00 ng/mL, and the HLQ was 1000 ng/mL.
as §3, §4

[6] = brain, BM mice (niraparib n = 4, olaparib n = 3), read-out: Group mean (SD) Kp, brain
[7] = brain, BM mice (niraparib n = 4, olaparib n = 3), read-out: Group mean (SD) Kp, uu, brain
[8] = brain, No BM mice (n = 3), read-out: LC-MS/MS Bulk brain tissue, mean (SD)
[9] = brain, No BM mice (n = 3), read-out: Group mean (SD) Kp, brain
[10] = brain, No BM mice (n = 3), read-out: Group mean (SD) Kp, uu, brain
[11] = brain, all mice (BM and no-BM combined), read-out: Mean Kp, brain
[12] = brain, all mice (BM and no-BM combined), read-out: Mean Kp, uu, brain
[13] = plasma, No BM mice (n = 3), read-out: LC-MS/MS Terminal plasma, mean (SD)
[14] = female, C57BL/6, mouse, brain tumor, oral
[15] = female, C57BL/6, mouse, contralateral normal brain, oral
[16] = female, C57BL/6, mouse, contralateral normal brain/plasma, oral
[17] = female, C57BL/6, mouse, normal brain, oral, 35 mg/kg

SMILES	Kp (in vivo [3]; Mean Kp)	Kp uu (in vivo [3]; Mean Kp)	Kp at 2 h [4, 6]	Kp uu at 2 h [4, 7]	concentration at 2 h [4, 8] [ng/g]	Kp at 2 h [4, 9]	Kp uu at 2 h [4, 10]	Kp at 2 h [4, 11]	Kp uu at 2 h [4, 12]	concentration at 2 h [4, 13] [ng/mL]	Kp at 2 h (in vivo [5]; [14])	concentration at 24 h (in vivo [5]; [15]) [ng/g]	further results
O=C(c1cc(Cc2n[nH]c(=O)c3ccccc23)ccc1F)N1CCN(C(=O)C2CC2)CC1 [Olaparib]	0.041	0.026	0.102	0.047	5	0.027	0.015	0.036	0.022	226	0.126	8	fraction unbound at 4 h, 1 µM (in vitro [1]; brain homogenate): 0.194; fraction unbound at 4 h, 1 µM (in vitro [1]; plasma): 0.301; fraction unbound at 4 h, 1 µM (in vitro [2]; CD1, mouse, brain homogenate): 0.23; Fu (in vitro [2]; CD1, mouse, plasma, 4 h, 1 µM): 35.2%; Kp, brain (in vivo [3]): 0.044; Kp, uu, brain (in vivo [3]): 0.028; Kp (in vivo [3]; Kp): 0.037; Kp uu (in vivo [3]; Kp): 0.024; Kp, brain (in vivo [5]; 2 h since dose, normal brain): 0.031; Brain tumor, mean (SD) (in vivo [5]; 24 h since dose, n = 9, olaparib: only three of nine animals had detectable drug levels): 78 (92)^d ng/g; Kp at 2 h (in vivo [5]; [16]): 0.031; Kp uu at 2 h (in vivo [5]; female, C57BL/6, mouse, in vivo): 0.02
NC(=O)c1cccc2cn(-c3ccc([C@@H]4CCCNC4)cc3)nc12 [Niraparib]	3.18	0.313	0.214	0.03	658	0.171	0.024	0.193	0.026	3850	0.893	171	fraction unbound at 4 h, 1 µM (in vitro [1]; plasma (undiluted)): 0.366; fraction unbound at 4 h, 1 µM (in vitro [2]; brain homogenate (diluted 1:4 [5×] in PBS)): 0.0295; fraction unbound at 4 h, 1 µM (in vitro [2]; cynomolgus monkey, brain homogenate (diluted 1:4 [5×] in PBS)): 0.0361; fraction unbound at 4 h, 1 µM (in vitro [2]; plasma (undiluted)): 0.22; overall mean Kp, uu, brain, niraparib higher than olaparib ([4]; all mice (BM and no-BM combined)): about 1.2 fold; concentration at 24 h (in vivo [5]; [14]): 436 ng/g; Kp at 24 h (in vivo [5]; female, C57BL/6, mouse, brain tumor, oral, 35 mg/kg): 0.465; Kp uu at 2 h (in vivo [5]; [16]): 0.011; Kp at 2 h (in vivo [5]; female, C57BL/6, mouse, normal brain, oral): 0.08; Kp at 24 h (in vivo [5]; [17]): 0.182; Kp uu at 24 h (in vivo [5]; [17]): 0.025
